Source: PubChem BioAssay (NCI)
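Results reflect a 48-hour exposure of cells in 96-well plates to compound at five concentrations. Definition used: TGI = concentration required for complete inhibition of growth.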

Tests used:
Test in all cases: growth of human tumour cells (NCI), 48 h
HT29 colon = tested on: HT29 colon
UACC-257 melanoma = tested on: UACC-257 melanoma
ACHN renal = tested on: ACHN renal
COLO 205 colon = tested on: COLO 205 colon
SK-MEL-28 melanoma = tested on: SK-MEL-28 melanoma
IGROV1 ovarian = tested on: IGROV1 ovarian
CCRF-CEM leukemia = tested on: CCRF-CEM leukemia
NCI-H23 lung = tested on: NCI-H23 lung
HCT-116 colon = tested on: HCT-116 colon
SW-620 colon = tested on: SW-620 colon
RPMI-8226 leukemia = tested on: RPMI-8226 leukemia

Row | Compound | TGI (HT29 colon) | TGI (UACC-257 melanoma) | TGI (ACHN renal) | TGI (COLO 205 colon) | TGI (SK-MEL-28 melanoma) | TGI (IGROV1 ovarian) | TGI (CCRF-CEM leukemia) | TGI (NCI-H23 lung) | TGI (HCT-116 colon) | TGI (SW-620 colon) | TGI (RPMI-8226 leukemia)
1 | CCCCC1=C(C(=O)N2CCOCC2)C2(OCCO2)C1Cl (centres undefined) | 78.6 µM | 60.9 µM | 52.1 µM | 54.3 µM | 53.6 µM | > 100 µM | > 100 µM | > 100 µM | > 100 µM | 89.5 µM | –
2 | CCOC(=O)N(C)CCC1CC=CC(=O)C1c1cccc(OC)c1OC (centres undefined) | 34.1 µM | 39.3 µM | > 100 µM | 17.8 µM | – | > 100 µM | 35.7 µM | 36.3 µM | 27.6 µM | > 100 µM | 46.6 µM
3 | c1ccc2nc3c(nc2c1)sc1nc2ccccc2n13 | > 100 µM | > 100 µM | > 100 µM | > 100 µM | – | > 100 µM | > 100 µM | > 100 µM | > 100 µM | – | > 100 µM
4 | COc1ccc2c(c1OC)C(Br)CCC(Br)(Br)C2=O (centres undefined) | 17.6 µM | 27.7 µM | 3.81 µM | 10.1 µM | 29.3 µM | 18.8 µM | – | 22.8 µM | 17.3 µM | 6.61 µM | 26.1 µM
5 | COc1ccc(OC)c2sc(N3C(=O)/C(=C/c4ccc(N(C)C)cc4)N=C3c3ccccc3)nc12 | > 100 µM | > 100 µM | > 100 µM | > 100 µM | > 100 µM | > 100 µM | 24.5 µM | – | > 100 µM | > 100 µM | > 100 µM
6 | O=[N+]([O-])/C(C(Cl)=C(Cl)Cl)=C(\Nc1cccc2cccnc12)Sc1ccccc1 | 73.6 µM | 55.7 µM | 71.1 µM | 31.6 µM | 36 µM | – | > 100 µM | 37.6 µM | 39 µM | 31.9 µM | > 100 µM
7 | Clc1ccccc1-c1nn2c(CCCCCCCCc3nnc4sc(-c5ccccc5Cl)nn34)nnc2s1 | > 100 µM | > 100 µM | > 100 µM | > 100 µM | > 100 µM | – | > 100 µM | > 100 µM | > 100 µM | > 100 µM | > 100 µM
8 | COC(=O)/N=[N+](\[O-])C(c1ccc(Cl)cc1)c1ccc(Cl)cc1 | > 100 µM | > 100 µM | – | 59.1 µM | > 100 µM | > 100 µM | > 100 µM | > 100 µM | 95.3 µM | > 100 µM | 67.3 µM
9 | CCOC(=O)Nn1cnnc1Cc1ccccc1 | > 100 µM | > 100 µM | > 100 µM | > 100 µM | – | > 100 µM | > 100 µM | > 100 µM | > 100 µM | > 100 µM | > 100 µM
10 | O=C1c2scc(-c3ccc(F)cc3)c2-n2cccc21 | > 100 µM | > 100 µM | > 100 µM | > 100 µM | > 100 µM | > 100 µM | > 100 µM | – | > 100 µM | > 100 µM | > 100 µM
